# Where two headings read alike, the source gives them in different places.
# Key:
# cyclin B/CDK1 enzyme = target: T1, cyclin B/CDK1 enzyme (Homo sapiens, UniProt P06493); assay: CDK1 ELISA kinase assay (phospho-Rb ser 795 detection); assay type: biochemical
# T1 construct: purchased New England BioLabs; host or cells: Sf9 insect cells, recombinant baculovirus
# Procedure, shortened: (§1)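 Sf9-derived cyclin/CDK, 200 μM ATP, immobilized GST-Rb; 30° C/1 h. Detection: phospho-Ser795 Ab, HRP, TMB, OD450.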
# MCF-7 = assay: Cytotoxicity assay (SRB), MCF-7; assay type: cell-based; conditions: Homo sapiens, MCF7, 72 h, read-out: In Vitro Cellular Activity IC50 MCF-7
# Procedure, shortened: (§2)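 Seeding: BT474 12000, HCT-116 4000, LoVo 6000, MCF-7 6000 cells/well; overnight attachment, 37 °C, 7% CO2. Drug exposure 3 d (BT474 6 d), RPMI 1640 + 5% FBS. Readout: TCA fix, 0.4% SRB, Tris solubilisation, A540.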
# HCT-116 = assay: Cytotoxicity assay (SRB), HCT-116; assay type: cell-based; conditions: Homo sapiens, HCT-116, 72 h, read-out: In Vitro Cellular Activity IC50 HCT116
# Procedure, shortened: as §2
# BT474 = assay: Cytotoxicity assay (SRB), BT474; assay type: cell-based; conditions: Homo sapiens, BT-474, 144 h, read-out: In Vitro Cellular Activity IC50 BT474
# Procedure, shortened: as §2
# cyclin D1/cdk 4 enzyme = target: T2, cyclin D1/cdk 4 enzyme (Homo sapiens, UniProt P11802); assay: CDK4 ELISA kinase assay (phospho-Rb ser 795 detection); assay type: biochemical
# T2 construct: made in house; host or cells: Sf9 insect cells, recombinant baculovirus
# Procedure, shortened: as §1
# cyclin E/CDK2 enzyme = target: T3, cyclin E/CDK2 enzyme (Homo sapiens, UniProt P24941); assay: CDK2 ELISA kinase assay (phospho-Rb ser 795 detection); assay type: biochemical
# T3 construct: made in house; host or cells: Sf9 insect cells, recombinant baculovirus
# Procedure, shortened: as §1
# LoVo = assay: Cytotoxicity assay (SRB), LoVo; assay type: cell-based; conditions: Homo sapiens, LoVo, 72 h, read-out: In Vitro Cellular Activity IC50 LOVO
# Procedure, shortened: as §2
# [1] = In Vitro Enzyme Assays, read-out: CDK1 IC50
# [2] = In Vitro Enzyme Assays, 200 μM ATP, read-out: CDK4 IC50
# [3] = In Vitro Enzyme Assays, read-out: CDK2 IC50
# [4] = In Vitro Enzyme Assay, cyclin B/CDK1, read-out: CDK1 IC50
# [5] = In Vitro Enzyme Assay, cyclin D1/cdk 4, read-out: CDK4 IC50
# [6] = In Vitro Enzyme Assay, cyclin E/CDK2, read-out: CDK2 IC50
# T2 sequence (P11802 whole entry, species assumed): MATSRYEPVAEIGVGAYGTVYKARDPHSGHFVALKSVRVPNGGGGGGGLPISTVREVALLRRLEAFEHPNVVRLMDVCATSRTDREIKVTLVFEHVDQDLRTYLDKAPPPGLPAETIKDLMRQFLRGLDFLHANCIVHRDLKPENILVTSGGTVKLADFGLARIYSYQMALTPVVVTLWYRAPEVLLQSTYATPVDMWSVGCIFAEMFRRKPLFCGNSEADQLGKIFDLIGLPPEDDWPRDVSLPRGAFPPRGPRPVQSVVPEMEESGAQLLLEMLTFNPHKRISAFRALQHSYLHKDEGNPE
# T2 sequence (P24385 whole entry partner, species assumed): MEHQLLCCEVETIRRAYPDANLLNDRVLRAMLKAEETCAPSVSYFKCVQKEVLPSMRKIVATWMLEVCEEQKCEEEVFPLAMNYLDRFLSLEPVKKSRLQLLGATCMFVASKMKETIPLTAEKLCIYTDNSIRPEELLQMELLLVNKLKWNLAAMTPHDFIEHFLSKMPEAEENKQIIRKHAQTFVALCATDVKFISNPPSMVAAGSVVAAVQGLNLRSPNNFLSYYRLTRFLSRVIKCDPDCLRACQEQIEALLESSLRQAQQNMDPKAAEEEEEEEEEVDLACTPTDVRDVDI
# T1 sequence (P06493 whole entry): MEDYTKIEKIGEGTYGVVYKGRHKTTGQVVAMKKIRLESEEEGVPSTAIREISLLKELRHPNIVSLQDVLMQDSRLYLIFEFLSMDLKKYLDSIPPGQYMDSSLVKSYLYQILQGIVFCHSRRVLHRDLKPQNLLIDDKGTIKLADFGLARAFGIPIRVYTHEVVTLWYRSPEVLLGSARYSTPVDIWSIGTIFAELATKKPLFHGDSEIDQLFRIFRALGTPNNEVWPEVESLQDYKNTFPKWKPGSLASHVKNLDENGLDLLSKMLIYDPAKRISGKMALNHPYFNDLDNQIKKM
# T1 sequence (P14635 whole entry partner): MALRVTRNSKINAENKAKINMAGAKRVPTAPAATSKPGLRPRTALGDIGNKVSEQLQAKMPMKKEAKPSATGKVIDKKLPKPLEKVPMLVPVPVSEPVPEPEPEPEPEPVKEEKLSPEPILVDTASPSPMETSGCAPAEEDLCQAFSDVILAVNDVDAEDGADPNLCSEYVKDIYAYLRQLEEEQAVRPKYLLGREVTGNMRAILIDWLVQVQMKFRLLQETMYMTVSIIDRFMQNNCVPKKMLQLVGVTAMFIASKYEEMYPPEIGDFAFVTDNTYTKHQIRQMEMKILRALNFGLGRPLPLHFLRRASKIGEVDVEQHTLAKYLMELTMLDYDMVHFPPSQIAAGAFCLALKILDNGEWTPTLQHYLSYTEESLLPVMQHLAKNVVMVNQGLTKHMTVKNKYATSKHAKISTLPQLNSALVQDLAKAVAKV
melting point,IC50 (cyclin B/CDK1 enzyme; [1]) [µM],IC50 (cyclin D1/cdk 4 enzyme; [2]) [µM],IC50 (cyclin E/CDK2 enzyme; [3]) [µM],IC50 (cyclin B/CDK1 enzyme; [4]) [µM],IC50 (cyclin D1/cdk 4 enzyme; [5]) [µM],IC50 (cyclin E/CDK2 enzyme; [6]) [µM],SMILES,"IC50 (MCF-7; MCF-7 cells, SRB, three days) [µM]","IC50 (HCT-116; HCT116 cells, SRB, three days) [µM]","IC50 (BT474; BT474 cells, SRB, 6 days) [µM]","IC50 (LoVo; LoVo cells, SRB, three days) [µM]","IC50 (MCF-7; MCF-7 cells, 3 days, SRB) [µM]","IC50 (HCT-116; HCT116 cells, 3 days, SRB) [µM]","IC50 (BT474; BT474 cells, 6 days, SRB) [µM]","IC50 (LoVo; LoVo cells, 3 days, SRB) [µM]",IC50 (MCF-7) [µM],IC50 (HCT-116) [µM],IC50 (BT474) [µM],IC50 (LoVo) [µM]
95 to 96 °C,> 50,0.17,> 50,,,,"COC[C@H]1CCCN1Cc1ccc(N/C=C2\C(=O)NC(=O)c3ccc(-c4ccsc4)cc32)cc1 [Example 331, (4Z)-4-{[(4-{[(2R)-2-(Methoxymethyl)pyrrolidin-1-yl]methyl}phenyl)amino]methylene}-6-thien-3-ylisoquinoline-1,3(2H,4H)-dione]",1.7,1.5,3.3,3,,,,,,,,
167 to 168 °C,> 50,9.4,> 50,,,,"O=C1NC(=O)c2ccc(Br)cc2/C1=C/c1cc(Br)c(O)c(Br)c1 [Example 94, (4Z)-6-Bromo-4-(3,5-dibromo-4-hydroxybenzylidene)isoquinoline-1,3(2H,4H)-dione]",2.3,3.4,2,6.4,,,,,,,,
226 to 227 °C,,,,2.2,1.3,> 50,"CN1CCN(c2cnc(N/C=C3\C(=O)NC(=O)c4ccc(-c5ccoc5)cc43)cn2)CC1 [Example 508, (4Z)-6-(3-Furyl)-4-({[5-(4-methylpiperazin-1-yl)pyrazin-2-yl]amino}methylene)isoquinoline-1,3(2H,4H)-dione]",,,,,1.3,0.95,3,1.1,,,,
252 to 253 °C,4,0.005,0.43,,,,"COc1ccc(CN/C=C2\C(=O)NC(=O)c3ccc(-c4cn[nH]c4)cc32)cc1O [Example 136, (4Z)-4-{[(3-Hydroxy-4-methoxybenzyl)amino]methylene}-6-(1H-pyrazol-4-yl)isoquinoline-1,3(2H,4H)-dione]",48,25,16,36,,,,,,,,
263 to 264 °C,1.2,0.0008,8.1,,,,COc1cc(CN/C=C2\C(=O)NC(=O)c3ccc(-c4ccoc4)cc32)cc(O)c1OC [Example 87],4.1,4.2,1.3,4.2,,,,,,,,
224 to 225 °C,> 50,1,6.7,,,,O=Cc1sccc1-c1ccc2c(c1)/C(=C/Nc1ccc(CN3CCCCC3)cc1)C(=O)NC2=O [Example 97],2.8,1.5,3.1,1.9,,,,,,,,
198 to 199 °C,42.5,0.1,> 50,,,,"C[C@@H]1CN(c2ccc(N/C=C3\C(=O)NC(=O)c4ccc(-c5ccsc5)cc43)cc2)C[C@H](C)N1C(=O)CN(C)C [Example 380, (4Z)-4-[({4-[(3R,5S)-4-(N,N-Dimethylglycyl)-3,5-dimethylpiperazin-1-yl]phenyl}amino)methylene]-6-thien-3-ylisoquinoline-1,3(2H,4H)-dione]",3.4,0.5,9.1,8.2,,,,,,,,
240 to 241 °C,> 50,0.34,> 50,,,,"COc1cc(CN/C=C2\C(=O)NC(=O)c3ccc(-c4ccc(Oc5ccccc5)cc4)cc32)cc(O)c1OC [Example 100, (4Z)-6-(4-Phenoxyphenyl)-4-{[(3-hydroxy-4,5-dimethoxybenzyl)amino]methylene}isoquinoline-1,3(2H,4H)-dione]",11,13.6,8.8,27.8,,,,,,,,

# Continued, compound first:
SMILES,melting point,IC50 (cyclin B/CDK1 enzyme; [1]) [µM],IC50 (cyclin D1/cdk 4 enzyme; [2]) [µM],IC50 (cyclin E/CDK2 enzyme; [3]) [µM],IC50 (cyclin B/CDK1 enzyme; [4]) [µM],IC50 (cyclin D1/cdk 4 enzyme; [5]) [µM],IC50 (cyclin E/CDK2 enzyme; [6]) [µM],"IC50 (MCF-7; MCF-7 cells, SRB, three days) [µM]","IC50 (HCT-116; HCT116 cells, SRB, three days) [µM]","IC50 (BT474; BT474 cells, SRB, 6 days) [µM]","IC50 (LoVo; LoVo cells, SRB, three days) [µM]","IC50 (MCF-7; MCF-7 cells, 3 days, SRB) [µM]","IC50 (HCT-116; HCT116 cells, 3 days, SRB) [µM]","IC50 (BT474; BT474 cells, 6 days, SRB) [µM]","IC50 (LoVo; LoVo cells, 3 days, SRB) [µM]",IC50 (MCF-7) [µM],IC50 (HCT-116) [µM],IC50 (BT474) [µM],IC50 (LoVo) [µM]
"CN1CCCC1c1ccc(N/C=C2\C(=O)NC(=O)c3ccc(I)cc32)nc1 (stereo not shown) [Example 460, (Z)-6-Iodo-4-((5-(1-methylpyrrolidin-2-yl)pyridin-2-ylamino)methylene)isoquinoline-1,3(2H,4H)-dione]",174 to 206 °C (dec.),,,,> 50,18.3,> 50,,,,,10.3,8.3,10,9.4,,,,
"CCCOc1cnc(CN/C=C2\C(=O)NC(=O)c3ccc(-c4ccco4)cc32)cc1O [Example 502, 6-Furan-2-yl-4-{[(4-hydroxy-5-propoxy-pyridin-2-ylmethyl)-amino]-methylene}-4H-isoquinoline-1,3-dione]",288 to 290 °C (dec.),,,,20.2,< 0.005,2.8,,,,,1.2,1.4,0.69,0.96,,,,
"C[C@@H]1CN(c2ccc(N/C=C3\C(=O)NC(=O)c4ccc(-c5ccoc5)cc43)cc2)C[C@H](C)N1C [Example 241, (4Z)-6-(3-Furyl)-4-[({4-[(3R,5S)-3,4,5-trimethylpiperazin-1-yl]phenyl}amino)-methylene]isoquinoline-1,3(2H,4H)-dione]",204 to 205 °C,> 50,0.45,> 50,,,,1.3,1.9,1.2,3.8,,,,,,,,
"CN(C)CCN1CCN(/C=C2\C(=O)NC(=O)c3ccc(Br)cc32)CC1 [Example 106, (4Z)-6-Bromo-4-({4-[2-(dimethylamino)ethyl]piperazin-1-yl}methylene)isoquinoline-1,3(2H,4H)-dione]",166 to 167 °C,> 50,31.5,> 50,,,,> 50,> 50,44.6,> 50,,,,,,,,
"O=C1NC(=O)c2ccc(I)cc2/C1=C/Nc1ccc(CN2CCOCC2)cc1 [Example 296, (4Z)-6-Iodo-4-({[4-(morpholin-4-ylmethyl)phenyl]amino}methylene)isoquinoline-1,3(2H,4H)-dione]",186 to 187 °C,> 50,2.1,> 50,,,,2.6,4,6.2,5,,,,,,,,
"O=C1NC(=O)c2ccc(I)cc2/C1=C/NCc1ccc(Cl)c(O)c1 [Example 165, (4Z)-4-{[(4-Chloro-3-hydroxybenzyl)amino]methylene}-6-iodoisoquinoline-′1,3(2H,4H)-dione]",324 to 325 °C,> 50,0.2,18.9,,,,> 50,23,> 50,> 50,,,,,,,,
"O=C1NC(=O)c2ccc(Br)cc2/C1=C/Nc1ccc(CN2CCCC2)cc1 [Example 59, (4Z)-6-Bromo-4-({[4-(pyrrolidin-1-ylmethyl)phenyl]amino}methylene)isoquinoline-1,3(2H,4H)-dione]",165 to 166 °C,> 50,0.23,25.2,,,,,,,,,,,,4.13,4.7,6.3,6.1
"C[C@@H]1CN(c2ccc(N/C=C3\C(=O)NC(=O)c4ccc(-c5ccoc5)cc43)cc2)C[C@H](C)N1C(=O)CN(C)C [Example 373, (4Z)-4-[({4-[(3R,5S)-4-(N,N-Dimethylglycyl)-3,5-dimethylpiperazin-1-yl]phenyl}amino)methylene]-6-(3-furyl)isoquinoline-1,3(2H,4H)-dione]",191 to 192 °C,> 50,0.01,> 50,,,,2.1,0.75,3.5,1.9,,,,,,,,
"O=C1NC(=O)c2ccc(I)cc2/C1=C/Nc1ccc(CN2CCC(O)CC2)cc1 [Example 440, (4Z)-4-[({4-[(4-Hydroxypiperidin-1-yl)methyl]phenyl}amino)methylene]-6-iodoisoquinoline-1,3(2H,4H)-dione]",255 to 256 °C,27.7,0.35,19.3,,,,,,,,1.6,3.2,1.6,4,,,,

# From patent publication US7713994B2 (Wyeth LLC, priority 2005, dated 2010)
